{
  "source": "patent US20080009418A1",
  "about": "“Selective Inhibitors” (Alchemia LTD., priority 2004, published 2008)",
  "key": {"Human melanocortin (MC5)": {"target": "T1, Human melanocortin (MC5) (Homo sapiens, UniProt P33032)", "T1 construct": "purchased Perkin Elmer Biosignal", "T1 sequence (P33032 whole entry)": "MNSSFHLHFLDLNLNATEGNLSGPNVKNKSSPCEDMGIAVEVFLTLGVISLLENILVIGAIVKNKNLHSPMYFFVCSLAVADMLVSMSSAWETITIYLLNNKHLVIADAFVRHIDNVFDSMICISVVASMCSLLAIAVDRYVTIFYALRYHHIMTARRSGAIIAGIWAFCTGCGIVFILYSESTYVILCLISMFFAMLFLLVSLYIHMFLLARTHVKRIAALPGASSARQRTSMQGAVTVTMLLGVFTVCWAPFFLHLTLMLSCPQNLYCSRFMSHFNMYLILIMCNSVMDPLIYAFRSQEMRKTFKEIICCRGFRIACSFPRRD", "assay": "Radioligand binding, human melanocortin MC5 membranes, FlashPlate, [125I]-NDP-αMSH", "settings": "compound at 10 μM, [125I]-NDP-αMSH; for A5: inhibition of radioligand binding: human MC5 membranes", "procedure,_shortened": "(§1)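 Cloned human receptor membranes were coated onto FlashPlate wells and incubated with radioligand and compound (added from a 0.5 mM DMSO daughter plate) for 1 hour at room temperature in the dark. Scintillation counting gave percent inhibition, with DMSO defining total and reference ligand defining non-specific binding.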"}, "Human μ-opioid (MOP)": {"target": "T2, Human μ-opioid (MOP) (Homo sapiens, UniProt P35372)", "T2 construct": "purchased Perkin Elmer Biosignal", "T2 sequence (P35372 whole entry)": "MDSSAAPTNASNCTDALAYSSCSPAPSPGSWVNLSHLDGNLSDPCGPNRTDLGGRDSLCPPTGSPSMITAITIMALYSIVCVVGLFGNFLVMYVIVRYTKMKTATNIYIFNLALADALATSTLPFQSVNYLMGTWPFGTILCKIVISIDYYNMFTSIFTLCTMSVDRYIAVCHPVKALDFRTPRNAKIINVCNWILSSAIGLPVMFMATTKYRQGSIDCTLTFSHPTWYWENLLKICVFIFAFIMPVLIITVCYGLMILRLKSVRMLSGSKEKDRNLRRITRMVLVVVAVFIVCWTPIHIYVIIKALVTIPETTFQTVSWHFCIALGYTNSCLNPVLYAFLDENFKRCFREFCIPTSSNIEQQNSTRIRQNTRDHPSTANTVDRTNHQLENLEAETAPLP", "assay": "Radioligand binding, human μ-opioid (MOP) membranes, FlashPlate, [3H]-Naloxone", "settings": "compound at 10 μM, [3H]-Naloxone; for A7: inhibition of radioligand binding: human MOP membranes", "procedure,_shortened": "as §1"}, "[1]": {"target": "T3, Human melanin-concentrating hormone (MCH1) (Homo sapiens, UniProt Q99705)", "T3 construct": "purchased Perkin Elmer Biosignal", "T3 sequence (Q99705 whole entry)": "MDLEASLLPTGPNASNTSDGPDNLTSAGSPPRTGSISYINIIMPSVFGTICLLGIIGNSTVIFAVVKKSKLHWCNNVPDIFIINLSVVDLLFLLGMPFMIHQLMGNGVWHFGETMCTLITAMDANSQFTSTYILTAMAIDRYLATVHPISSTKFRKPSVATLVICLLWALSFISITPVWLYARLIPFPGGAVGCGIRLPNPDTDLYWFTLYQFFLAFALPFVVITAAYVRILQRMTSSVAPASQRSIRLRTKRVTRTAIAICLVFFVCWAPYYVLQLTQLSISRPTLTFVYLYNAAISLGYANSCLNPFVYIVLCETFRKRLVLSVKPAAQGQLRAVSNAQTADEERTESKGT", "assay": "Radioligand binding, human melanin-concentrating hormone MCH1 membranes, FlashPlate, [125I]-S36057", "settings": "compound at 10 μM; for A6: inhibition of radioligand binding: [125I]-S36057, human MCH1 membranes", "procedure,_shortened": "as §1"}, "Human opioid (ORL1)": {"target": "T4, Human opioid (ORL1) (Homo sapiens, UniProt P41146)", "T4 construct": "purchased Perkin Elmer Biosignal", "T4 sequence (P41146 whole entry)": "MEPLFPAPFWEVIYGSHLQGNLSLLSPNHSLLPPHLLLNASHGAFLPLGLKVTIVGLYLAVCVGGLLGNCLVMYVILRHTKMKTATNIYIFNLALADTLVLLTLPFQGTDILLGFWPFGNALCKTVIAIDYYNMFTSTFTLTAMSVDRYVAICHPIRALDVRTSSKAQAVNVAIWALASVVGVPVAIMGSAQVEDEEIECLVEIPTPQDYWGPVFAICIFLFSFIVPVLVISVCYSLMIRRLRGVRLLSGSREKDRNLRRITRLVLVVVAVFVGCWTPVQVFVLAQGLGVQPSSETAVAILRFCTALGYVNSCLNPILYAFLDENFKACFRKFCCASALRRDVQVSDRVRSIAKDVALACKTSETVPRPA", "assay": "Radioligand binding, human opioid ORL1 membranes, FlashPlate, [125I]-Nociceptin", "settings": "compound at 10 μM, [125I]-Nociceptin; for A10: inhibition of radioligand binding: human ORL1 membranes", "procedure,_shortened": "as §1"}, "Human δ-opioid (DOP)": {"target": "T5, Human δ-opioid (DOP) (Homo sapiens, UniProt P41143)", "T5 construct": "purchased Perkin Elmer Biosignal", "T5 sequence (P41143 whole entry)": "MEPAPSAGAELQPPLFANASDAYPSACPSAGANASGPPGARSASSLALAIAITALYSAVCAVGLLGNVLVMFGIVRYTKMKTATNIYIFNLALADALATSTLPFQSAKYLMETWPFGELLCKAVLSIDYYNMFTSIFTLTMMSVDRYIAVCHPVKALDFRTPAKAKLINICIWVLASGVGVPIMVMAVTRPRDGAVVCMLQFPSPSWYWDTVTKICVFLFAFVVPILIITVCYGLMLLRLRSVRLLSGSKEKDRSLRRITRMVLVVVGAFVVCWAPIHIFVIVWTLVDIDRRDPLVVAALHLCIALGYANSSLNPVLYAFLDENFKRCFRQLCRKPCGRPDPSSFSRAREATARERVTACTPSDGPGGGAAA", "assay": "Radioligand binding, human δ-opioid (DOP) membranes, FlashPlate, [3H]-Bremazocine", "settings": "compound at 10 μM, [3H]-Bremazocine; for A1: inhibition of radioligand binding: human DOP membranes", "procedure,_shortened": "as §1"}, "[2]": {"target": "T6, Human neuropeptide Y (NPY-Y1) (Homo sapiens, UniProt P25929)", "T6 construct": "purchased Perkin Elmer Biosignal", "T6 sequence (P25929 1-384)": "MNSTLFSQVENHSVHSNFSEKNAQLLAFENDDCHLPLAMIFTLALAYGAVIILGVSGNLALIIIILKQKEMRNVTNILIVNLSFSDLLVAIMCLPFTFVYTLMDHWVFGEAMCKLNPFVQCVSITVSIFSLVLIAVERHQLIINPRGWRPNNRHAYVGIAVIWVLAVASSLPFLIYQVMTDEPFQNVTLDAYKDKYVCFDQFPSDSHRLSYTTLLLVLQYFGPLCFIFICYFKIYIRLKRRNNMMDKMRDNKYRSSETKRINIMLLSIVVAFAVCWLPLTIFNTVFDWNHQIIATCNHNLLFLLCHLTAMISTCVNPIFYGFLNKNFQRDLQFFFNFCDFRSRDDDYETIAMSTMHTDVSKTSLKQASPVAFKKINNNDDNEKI", "assay": "Radioligand binding, human neuropeptide Y NPY-Y1 membranes, FlashPlate, [125I]-PYY", "settings": "compound at 10 μM, [125I]-PYY; for A9: inhibition of radioligand binding: human NPY-Y1 membranes", "procedure,_shortened": "as §1"}, "Human Melanocortin (MC3)": {"target": "T7, Human Melanocortin (MC3) (Homo sapiens, UniProt P41968)", "T7 construct": "purchased Perkin Elmer Biosignal", "T7 sequence (P41968 whole entry)": "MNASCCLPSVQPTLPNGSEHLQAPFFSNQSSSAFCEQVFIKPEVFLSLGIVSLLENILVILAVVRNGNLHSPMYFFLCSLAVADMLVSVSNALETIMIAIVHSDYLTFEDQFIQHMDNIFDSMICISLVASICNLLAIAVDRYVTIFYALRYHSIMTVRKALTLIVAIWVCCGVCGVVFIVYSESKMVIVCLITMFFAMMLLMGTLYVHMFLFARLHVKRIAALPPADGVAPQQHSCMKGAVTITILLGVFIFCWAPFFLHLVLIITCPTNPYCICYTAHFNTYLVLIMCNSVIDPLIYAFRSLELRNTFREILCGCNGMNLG", "assay": "Radioligand binding, human melanocortin MC3 membranes, FlashPlate, [125I]-NDP-αMSH", "settings": "compound at 10 μM, [125I]-NDP-αMSH; for A3: inhibition of radioligand binding: human MC3 membranes", "procedure,_shortened": "as §1"}, "Human neurokinin (NK1)": {"target": "T8, Human neurokinin (NK1) (Homo sapiens, UniProt P25103)", "T8 construct": "purchased Perkin Elmer Biosignal", "T8 sequence (P25103 whole entry)": "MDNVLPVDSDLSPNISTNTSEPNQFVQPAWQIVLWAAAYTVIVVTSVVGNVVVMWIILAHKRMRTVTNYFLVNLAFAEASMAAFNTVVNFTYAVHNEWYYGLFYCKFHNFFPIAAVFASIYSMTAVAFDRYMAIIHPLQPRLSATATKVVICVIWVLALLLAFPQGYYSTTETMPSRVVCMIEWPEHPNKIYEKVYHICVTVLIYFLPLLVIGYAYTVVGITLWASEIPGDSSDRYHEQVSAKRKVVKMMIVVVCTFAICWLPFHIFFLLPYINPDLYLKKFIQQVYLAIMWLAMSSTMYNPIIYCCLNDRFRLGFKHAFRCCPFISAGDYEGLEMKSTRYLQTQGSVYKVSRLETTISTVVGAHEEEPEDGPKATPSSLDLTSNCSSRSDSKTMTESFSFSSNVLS", "assay": "Radioligand binding, human neurokinin NK1 membranes, filtration, [125I]-Substance P", "settings": "compound at 10 μM, [125I]-Substance P; for A8: inhibition of radioligand binding: human NK1 membranes", "procedure,_shortened": "(§2)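 Filtration binding on cloned human receptor membranes (1 Unit/well), [125I]-Substance P for NK1 and [3H]-Diprenorphine for KOP, 1 h at room temperature. Filters PEI-presoaked, washed with cold 50 mM Tris-HCl pH 7.4, counted by scintillation; percent inhibition calculated, reference ligand defining non-specific binding.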"}, "Human κ-Opioid (KOP)": {"target": "T9, Human κ-Opioid (KOP) (Homo sapiens, UniProt P41145)", "T9 construct": "purchased Perkin Elmer Biosignal", "T9 sequence (P41145 whole entry)": "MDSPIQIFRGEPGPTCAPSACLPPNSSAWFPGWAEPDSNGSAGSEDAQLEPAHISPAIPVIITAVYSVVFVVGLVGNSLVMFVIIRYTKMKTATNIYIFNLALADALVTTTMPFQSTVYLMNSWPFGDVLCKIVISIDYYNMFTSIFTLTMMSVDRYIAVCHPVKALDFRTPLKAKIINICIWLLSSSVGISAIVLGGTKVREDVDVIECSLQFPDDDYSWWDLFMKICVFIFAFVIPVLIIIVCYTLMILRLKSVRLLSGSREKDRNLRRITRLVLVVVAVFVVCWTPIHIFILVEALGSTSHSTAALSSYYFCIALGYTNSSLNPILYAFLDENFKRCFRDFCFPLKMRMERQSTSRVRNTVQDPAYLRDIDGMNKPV", "assay": "Radioligand binding, human κ-opioid (KOP) membranes, filtration, [3H]-Diprenorphine", "settings": "compound at 10 μM, [3H]-Diprenorphine; for A2: inhibition of radioligand binding: human KOP membranes", "procedure,_shortened": "as §2"}, "Human Melanocortin (MC4)": {"target": "T10, Human Melanocortin (MC4) (Homo sapiens, UniProt P32245)", "T10 construct": "purchased Perkin Elmer Biosignal", "T10 sequence (P32245 whole entry)": "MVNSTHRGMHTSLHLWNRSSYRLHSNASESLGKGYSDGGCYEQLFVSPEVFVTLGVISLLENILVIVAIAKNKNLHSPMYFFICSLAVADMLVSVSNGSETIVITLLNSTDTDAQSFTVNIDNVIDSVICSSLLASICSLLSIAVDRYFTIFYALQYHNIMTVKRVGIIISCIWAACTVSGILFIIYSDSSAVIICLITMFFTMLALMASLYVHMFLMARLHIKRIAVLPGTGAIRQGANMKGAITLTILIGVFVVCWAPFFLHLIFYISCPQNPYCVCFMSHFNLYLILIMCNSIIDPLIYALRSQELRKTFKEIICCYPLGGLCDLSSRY", "assay": "Radioligand binding, human melanocortin MC4 membranes, FlashPlate, [125I]-NDP-αMSH", "settings": "compound at 10 μM, [125I]-NDP-αMSH; for A4: inhibition of radioligand binding: human MC4 membranes", "procedure,_shortened": "as §1"}, "Mouse urotensin (mUR2)": {"target": "T11, Mouse urotensin (mUR2) (Mus musculus, UniProt Q8VIH9)", "T11 construct": "purchased Perkin Elmer Biosignal", "T11 sequence (Q8VIH9 1-385)": "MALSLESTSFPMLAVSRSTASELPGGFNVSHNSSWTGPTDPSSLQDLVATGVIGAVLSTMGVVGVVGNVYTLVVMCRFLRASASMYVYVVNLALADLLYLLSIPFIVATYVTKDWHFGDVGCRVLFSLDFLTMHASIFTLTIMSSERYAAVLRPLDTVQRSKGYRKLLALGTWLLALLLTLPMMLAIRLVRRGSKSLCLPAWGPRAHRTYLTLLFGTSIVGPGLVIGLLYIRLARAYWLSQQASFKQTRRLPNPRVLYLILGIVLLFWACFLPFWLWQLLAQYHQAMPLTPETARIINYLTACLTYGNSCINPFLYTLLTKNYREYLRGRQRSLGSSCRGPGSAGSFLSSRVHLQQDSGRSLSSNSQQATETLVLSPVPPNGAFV", "assay": "Radioligand binding, mouse urotensin mUR2 membranes, FlashPlate, [125I]-Urotensin II", "settings": "compound at 10 μM, [125I]-Urotensin II; for A11: inhibition of radioligand binding: mouse mUR2 membranes", "procedure,_shortened": "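Cloned mouse urotensin (mUR2) receptor membranes from Perkin Elmer Biosignal were immobilized in FlashPlate microplates using a proprietary coating. Each well got 19.5 μl buffer, then 0.5 μl of DMSO, reference ligand, or compound. Adding 5 μl of [125I]-Urotensin II, diluted to 5× final concentration in binding buffer, started binding. Plates were sealed with TopSeal-A and incubated 1 hour at room temperature in the dark. Wells were counted for 30 seconds each on a TopCount after a 60-second delay, and percentage inhibition was calculated.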"}},
  "data": [
    {"smiles": "NCCCC(=O)NC1C(OCc2ccc3ccccc3c2)OC(COCc2ccc3ccccc3c2)C(O)C1OCc1ccc2ccccc2c1", "note": "(single isomer, unassigned) [compound 461]", "values": [
      {"measurement": "A5: inhibition of radioligand binding", "setting": "Human melanocortin (MC5)", "result": "+ (“+” indicates greater than 50% inhibition at 10 μM)"},
      {"measurement": "A7: inhibition of radioligand binding", "setting": "Human μ-opioid (MOP); 10 µM", "result": "+ (“+” indicates greater than 50% inhibition at 10 μM)"},
      {"measurement": "A6: inhibition of radioligand binding", "setting": "[1]; 10 µM", "result": "+ (“+” indicates greater than 50% inhibition at 10 μM)"},
      {"measurement": "A10: inhibition of radioligand binding", "setting": "Human opioid (ORL1); 10 µM", "result": "+ (“+” indicates greater than 50% inhibition at 10 μM)"},
      {"measurement": "A1: inhibition of radioligand binding", "setting": "Human δ-opioid (DOP)", "result": "− (“−” indicates less than 50% inhibition at 10 μM)"},
      {"measurement": "A9: inhibition of radioligand binding", "setting": "[2]", "result": "− (“−” indicates less than 50% inhibition at 10 μM)"},
      {"measurement": "A3: inhibition of radioligand binding", "setting": "Human Melanocortin (MC3); 10 µM", "result": "+ (“+” indicates greater than 50% inhibition at 10 μM)"},
      {"measurement": "A8: inhibition of radioligand binding", "setting": "Human neurokinin (NK1)", "result": "+ (“+” indicates greater than 50% inhibition at 10 μM)"},
      {"measurement": "A2: inhibition of radioligand binding", "setting": "Human κ-Opioid (KOP)", "result": "− (“−” indicates less than 50% inhibition at 10 μM)"},
      {"measurement": "A4: inhibition of radioligand binding", "setting": "Human Melanocortin (MC4); 10 µM", "result": "+ (“+” indicates greater than 50% inhibition at 10 μM)"},
      {"measurement": "A11: inhibition of radioligand binding", "setting": "Mouse urotensin (mUR2)", "result": "− (“−” indicates less than 50% inhibition at 10 μM)"}
    ]},
    {"smiles": "NCCC(=O)NC1C(OCc2ccc3ccccc3c2)OC(COCc2ccc(Cl)cc2)C(O)C1OCc1ccc(Cl)cc1", "note": "(stereo not drawn) [compound 383]", "values": [
      {"measurement": "A5: inhibition of radioligand binding", "setting": "Human melanocortin (MC5)", "result": "+ (“+” indicates greater than 50% inhibition at 10 μM)"},
      {"measurement": "A7: inhibition of radioligand binding", "setting": "Human μ-opioid (MOP)", "result": "− (“−” indicates less than 50% inhibition at 10 μM)"},
      {"measurement": "A6: inhibition of radioligand binding", "setting": "[1]", "result": "− (“−” indicates less than 50% inhibition at 10 μM)"},
      {"measurement": "A10: inhibition of radioligand binding", "setting": "Human opioid (ORL1)", "result": "− (“−” indicates less than 50% inhibition at 10 μM)"},
      {"measurement": "A1: inhibition of radioligand binding", "setting": "Human δ-opioid (DOP)", "result": "− (“−” indicates less than 50% inhibition at 10 μM)"},
      {"measurement": "A9: inhibition of radioligand binding", "setting": "[2]", "result": "− (“−” indicates less than 50% inhibition at 10 μM)"},
      {"measurement": "A3: inhibition of radioligand binding", "setting": "Human Melanocortin (MC3)", "result": "+ (“+” indicates greater than 50% inhibition at 10 μM)"},
      {"measurement": "A8: inhibition of radioligand binding", "setting": "Human neurokinin (NK1)", "result": "+ (“+” indicates greater than 50% inhibition at 10 μM)"},
      {"measurement": "A2: inhibition of radioligand binding", "setting": "Human κ-Opioid (KOP)", "result": "− (“−” indicates less than 50% inhibition at 10 μM)"},
      {"measurement": "A4: inhibition of radioligand binding", "setting": "Human Melanocortin (MC4)", "result": "+ (“+” indicates greater than 50% inhibition at 10 μM)"},
      {"measurement": "A11: inhibition of radioligand binding", "setting": "Mouse urotensin (mUR2)", "result": "− (“−” indicates less than 50% inhibition at 10 μM)"}
    ]},
    {"smiles": "CO[C@H]1[C@H](O)[C@@H](COCc2ccccc2)OC(OCc2ccc(Cl)cc2)[C@@H]1NC(=O)CCCNC(=N)N", "note": "(stereo partly drawn) [compound 104]", "values": [
      {"measurement": "A5 radioligand binding, percentage inhibition", "setting": "Human melanocortin (MC5)", "result": "+ (“+” indicates greater than 50% inhibition at 10 μM)"},
      {"measurement": "A7 radioligand binding, percentage inhibition", "setting": "Human μ-opioid (MOP)", "result": "+ (“+” indicates greater than 50% inhibition at 10 μM)"},
      {"measurement": "A6 radioligand binding, percentage inhibition", "setting": "[1]; [125I]-S36057", "result": "− (“−” indicates less than 50% inhibition at 10 μM)"},
      {"measurement": "A10 radioligand binding, percentage inhibition", "setting": "Human opioid (ORL1)", "result": "− (“−” indicates less than 50% inhibition at 10 μM)"},
      {"measurement": "A1 radioligand binding, percentage inhibition", "setting": "Human δ-opioid (DOP)", "result": "− (“−” indicates less than 50% inhibition at 10 μM)"},
      {"measurement": "A9 radioligand binding, percentage inhibition", "setting": "[2]", "result": "− (“−” indicates less than 50% inhibition at 10 μM)"},
      {"measurement": "A3 radioligand binding, percentage inhibition", "setting": "Human Melanocortin (MC3)", "result": "− (“−” indicates less than 50% inhibition at 10 μM)"},
      {"measurement": "A8 radioligand binding, percentage inhibition", "setting": "Human neurokinin (NK1)", "result": "+ (“+” indicates greater than 50% inhibition at 10 μM)"},
      {"measurement": "A2 radioligand binding, percentage inhibition", "setting": "Human κ-Opioid (KOP)", "result": "− (“−” indicates less than 50% inhibition at 10 μM)"},
      {"measurement": "A4 radioligand binding, percentage inhibition", "setting": "Human Melanocortin (MC4)", "result": "+ (“+” indicates greater than 50% inhibition at 10 μM)"},
      {"measurement": "A11 radioligand binding, percentage inhibition", "setting": "Mouse urotensin (mUR2)", "result": "− (“−” indicates less than 50% inhibition at 10 μM)"}
    ]}
  ]
}
